# Reference: patent US12448394B2, “Heterocyclic pyrazole derivatives as type III receptor tyrosine kinase inhibitors” (DEVELOPMENT CENTER FOR BIOTECHNOLOGY, priority 2019, dated 2025)
# Key:
# FLT3-D835Y mutant kinase = target: T1, FLT3-D835Y mutant kinase (Homo sapiens, UniProt P36888, D835Y); assay: FLT3-D835Y mutant kinase assay (AlphaScreen); type: biochemical; details: read-out: Ranking of IC50 values, FLT3-D835Y
# T1 construct: purchased SignalChem
# T1 sequence (P36888 27-993 D835Y): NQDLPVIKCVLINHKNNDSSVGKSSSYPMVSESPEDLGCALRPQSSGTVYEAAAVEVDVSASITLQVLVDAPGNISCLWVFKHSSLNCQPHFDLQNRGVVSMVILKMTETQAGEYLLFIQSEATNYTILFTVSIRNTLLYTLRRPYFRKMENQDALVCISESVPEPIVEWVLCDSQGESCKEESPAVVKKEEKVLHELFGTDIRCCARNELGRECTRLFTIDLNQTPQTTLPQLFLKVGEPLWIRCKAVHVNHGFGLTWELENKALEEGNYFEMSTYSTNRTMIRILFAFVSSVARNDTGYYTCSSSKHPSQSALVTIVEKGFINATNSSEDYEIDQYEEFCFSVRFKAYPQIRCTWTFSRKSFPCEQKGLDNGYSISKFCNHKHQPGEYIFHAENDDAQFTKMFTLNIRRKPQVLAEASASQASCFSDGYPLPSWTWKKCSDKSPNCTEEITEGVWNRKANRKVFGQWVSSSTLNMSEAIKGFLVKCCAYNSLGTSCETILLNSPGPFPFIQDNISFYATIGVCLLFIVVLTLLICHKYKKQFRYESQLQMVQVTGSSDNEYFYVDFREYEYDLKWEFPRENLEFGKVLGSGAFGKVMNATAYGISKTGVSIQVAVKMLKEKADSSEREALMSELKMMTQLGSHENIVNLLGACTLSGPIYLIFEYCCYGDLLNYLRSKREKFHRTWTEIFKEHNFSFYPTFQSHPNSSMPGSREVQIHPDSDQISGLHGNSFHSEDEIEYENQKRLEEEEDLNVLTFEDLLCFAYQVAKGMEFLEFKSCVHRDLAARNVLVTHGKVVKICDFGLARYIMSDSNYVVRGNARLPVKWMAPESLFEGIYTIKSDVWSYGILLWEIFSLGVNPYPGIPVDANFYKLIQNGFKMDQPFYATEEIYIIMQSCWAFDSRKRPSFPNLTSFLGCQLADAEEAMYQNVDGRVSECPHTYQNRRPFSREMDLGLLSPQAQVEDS
# How it was run: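 Recombinant FLT3-D835Y (1 ng) phosphorylated biotin-poly(Glu4:Tyr1) at 10 μM ATP, pH 7.0 MOPS buffer with 10 mM MgCl2, for 30 min at 30 °C, stopped with EDTA. Product was read by AlphaScreen. IC50 came from serial dilutions run in duplicate.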
# [1] = test system: MV4-11 human acute myeloid leukemia cell with FLT3-ITD mutation; assay: MV4-11 cell proliferation assay (CellTiter 96); type: cell-based; details: Homo sapiens, MV4-11, 72 h, MV4-11 cells, 72 hours treatment, CellTiter96; read-out: anti-proliferation activity MV4-11 (FLT3-ITD), IC50 ranking
# How it was run: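 Cells seeded at 6500/well in IMDM with 10% heat-inactivated FBS, left overnight at 37 °C, 5% CO2, then exposed to increasing compound concentrations for 72 h. Viability read as absorbance at 490 nm after 2–4 h with CellTiter96 AQueous One reagent.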
# [2] = test system: Molm-14 human acute myeloid leukemia cell with FLT3-ITD mutation; assay: Molm-14 cell proliferation assay (CellTiter 96); type: cell-based; details: Homo sapiens; Molm-14 cells, 72 hours treatment, CellTiter96; read-out: anti-proliferation activity Molm-14 (FLT3-ITD), IC50 ranking
# How it was run: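 Molm-14 (FLT3-ITD AML) cells in RPMI 1640 with 10% heat-inactivated FBS were seeded at 25000 cells/well, incubated overnight at 37° C, 5% CO2, then treated with increasing compound concentrations for 72 hours. Viability was read as absorbance at 490 nm after 2˜4 hours with CellTiter96 AQueous One reagent.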
Compound,IC50 (FLT3-D835Y mutant kinase) [nM],IC50 [1] [nM],IC50 [2] [nM]
"Cn1ncc2ccc(-c3n[nH]c4c3Cc3sc(-c5ccc(CN6CCOCC6=O)cc5)cc3-4)cc21 [Compound 59, 4-(4-(3-(1-methyl-1H-indazol-6-yl)-1,4-dihydro-thieno[2′,3′:4,5]cyclopenta [1,2-c]pyrazol-6-yl)benzyl)morpholin-3-one]",< 1,< 30,< 30
"Cn1ncc2ccc(-c3n[nH]c4c3Cc3sc(-c5csc(C(=O)N6CCOCC6)n5)cc3-4)cc21 [Compound 60, (4-(3-(1-methyl-1H-indazol-6-yl)-1,4-dihydro-thieno[2′,3′:4,5]cyclopenta [1,2-c]pyrazol-6-yl)thiazol-2-yl)(morpholino) methanone]",< 1,< 30,< 30
"Cn1ncc2ccc(-c3n[nH]c4c3Cc3sc(-c5ccc(CN6CCCCC6=O)cc5)cc3-4)cc21 [Compound 61, 1-(4-(3-(l-methyl-1H-indazol-6-yl)-1,4-dihydro-thieno[2′,3′:4,5]cyclopenta [1,2-c]pyrazol-6-yl)benzyl)piperidin-2-one]",< 1,< 30,< 30
"Cn1ncc2ccc(-c3n[nH]c4c3Cc3sc(-c5ccc(CN6CCNC(=O)C6)cc5)cc3-4)cc21 [Compound 63, 4-(4-(3-(1-methyl-1H-indazol-6-yl)-1,4-dihydro-thieno[2′,3′:4,5]cyclopenta [1,2-c]pyrazol-6-yl)benzyl)piperazin-2-one]",1 to 10,< 30,< 30
"Cn1ncc2ccc(-c3n[nH]c4c3Cc3sc(-c5ccc(CN6CCCC6=O)cc5)cc3-4)cc21 [Compound 64, 1-(4-(3-(1-methyl-1H-indazol-6-yl)-1,4-dihydro-thieno[2′,3′:4,5]cyclopenta [1,2-c]pyrazol-6-yl)benzyl)pyrrolidin-2-one]",1 to 10,< 30,< 30
"CC1C(=O)N(C)CCN1Cc1ccc(-c2cc3c(s2)Cc2c(-c4ccc5cnn(C)c5c4)n[nH]c2-3)cc1 (stereo not drawn) [Compound 65, 1,3-dimethyl-4-(4-(3-(1-methyl-1H-indazol-6-yl)-1,4-dihydrothieno [2′,3′:4,5]cyclopenta [1,2-c]pyrazol-6-yl)benzyl)piperazin-2-one]",< 1,< 30,< 30
"Cn1ncc2ccc(-c3n[nH]c4c3Cc3sc(-c5ccc(CCN6CCOCC6=O)cc5)cc3-4)cc21 [Compound 66, 4-(4-(3-(1-methyl-1H-indazol-6-yl)-1,4-dihydro-thieno[2′,3′:4,5]cyclopenta [1,2-c]pyrazol-6-yl)phenethyl)morpholin-3-one]",< 1,< 30,< 30
"Cn1ncc2ccc(-c3n[nH]c4c3Cc3sc(-c5ccc(CN6CCC(F)(F)C6)cc5)cc3-4)cc21 [Compound 67, 6-(4-((3,3-difluoro-pyrrolidin-1-yl)methyl)phenyl)-3-(1-methyl-1H-indazol-6-yl)-1,4-dihydro-thieno[2′,3′:4,5]cyclopenta [1,2-c]pyrazole]",1 to 10,100 to 300,100 to 300
"Cn1ncc2ccc(-c3n[nH]c4c3Cc3sc(-c5ccc(OCCN6CCOCC6)cc5)cc3-4)cc21 [Compound 69, 4-(2-(4-(3-(1-methyl-1H-indazol-6-yl)-1,4-dihydro-thieno[2′,3′:4,5]cyclopenta [1,2-c]pyrazol-6-yl)phenoxy)ethyl)morpholine]",< 1,< 30,30 to 100
"Cn1ncc2ccc(-c3n[nH]c4c3Cc3sc(-c5cccc(OCCN6CCOCC6)c5)cc3-4)cc21 [Compound 70, 4-(2-(3-(3-(1-methyl-1H-indazol-6-yl)-1,4-dihydro-thieno[2′,3′:4,5]cyclopenta [1,2-c]pyrazol-6-yl)phenoxy)ethyl)morpholine]",< 1,30 to 100,100 to 300
"Cn1ncc2ccc(-c3n[nH]c4c3Cc3sc(C#CCN5CCOCC5)cc3-4)cc21 [Compound 71, 4-(3-(3-(1-methyl-1H-indazol-6-yl)-1,4-dihydro-thieno[2′,3′:4,5]cyclopenta [1,2-c]pyrazol-6-yl)prop-2-yn-1-yl)morpholine]",< 1,< 30,30 to 100
"Cn1ncc2ccc(-c3n[nH]c4c3Cc3sc(-c5ccc(NC6CCOCC6)cc5)cc3-4)cc21 [Compound 72, N-(4-(3-(1-methyl-1H-indazol-6-yl)-1,4-dihydro-thieno[2′,3′:4,5]cyclopenta [1,2-c]pyrazol-6-yl)phenyl)tetrahydro-2H-pyran-4-amine]",1 to 10,30 to 100,100 to 300
"CN(c1ccc(-c2cc3c(s2)Cc2c(-c4ccc5cnn(C)c5c4)n[nH]c2-3)cc1)C1CCOCC1 [Compound 73, N-methyl-N-(4-(3-(1-methyl-1H-indazol-6-yl)-1,4-dihydrothieno [2′,3′:4,5]cyclopenta [1,2-c]pyrazol-6-yl)phenyl)tetrahydro-2H-pyran-4-amine]",1 to 10,100 to 300,300 to 1000
"C[C@@H]1COCCN1Cc1ccc(-c2cc3c(s2)Cc2c(-c4ccc5cnn(C)c5c4)n[nH]c2-3)cc1 [Compound 74, (R)-3-methyl-4-(4-(3-(1-methyl-1H-indazol-6-yl)-1,4-dihydrothieno [2′,3′:4,5]cyclopenta [1,2-c]pyrazol-6-yl)benzyl)morpholine]",< 1,< 30,30 to 100
"C[C@H]1COCCN1Cc1ccc(-c2cc3c(s2)Cc2c(-c4ccc5cnn(C)c5c4)n[nH]c2-3)cc1 [Compound 75, (S)-3-methyl-4-(4-(3-(1-methyl-1H-indazol-6-yl)-1,4-dihydrothieno [2′,3′:4,5]cyclopenta [1,2-c]pyrazol-6-yl)benzyl)morpholine]",< 1,< 30,30 to 100
"Cn1ncc2ccc(-c3n[nH]c4c3Cc3sc(-c5ccc(C=C6CCOCC6)cc5)cc3-4)cc21 [Compound 76, 3-(1-methyl-1H-indazol-6-yl)-6-(4-((tetrahydro-4H-pyran-4-ylidene)methyl)phenyl)-1,4-dihydrothieno[2′,3′:4,5] cyclopenta[1,2-c]pyrazole]",1 to 10,300 to 1000,300 to 1000
"Cn1ncc2ccc(-c3n[nH]c4c3Cc3sc(-c5ccc(CC6CCOCC6)cc5)cc3-4)cc21 [Compound 77, 3-(1-methyl-1H-indazol-6-yl)-6-(4-((tetrahydro-2H-pyran-4-yl)methyl)phenyl)-1,4-dihydrothieno [2′,3′:4,5]cyclopenta [1,2-c]pyrazole]",1 to 10,100 to 300,100 to 300
"Cn1ncc2ccc(-c3n[nH]c4c3Cc3sc(N5CCOCC5)cc3-4)cc21 [Compound 78, 4-(3-(1-methyl-1H-indazol-6-yl)-1,4-dihydro-thieno[2′,3′:4,5]cyclopenta [1,2-c]pyrazol-6-yl) morpholine]",< 1,< 30,< 30
"Cn1ncc2ccc(-c3n[nH]c4c3Cc3sc(N5CCOCC5=O)cc3-4)cc21 [Compound 79, 4-(3-(1-methyl-1H-indazol-6-yl)-1,4-dihydro-thieno[2′,3′:4,5]cyclopenta [1,2-c]pyrazol-6-yl) morpholin-3-one]",< 1,< 30,< 30
"Cn1ncc2ccc(-c3n[nH]c4c3Cc3sc(-c5ccc(CN6CCC(N7CCOCC7)CC6)cc5)cc3-4)cc21 [Compound 80, 4-(1-(4-(3-(1-methyl-1H-indazol-6-yl)-1,4-dihydro-thieno[2′,3′:4,5]cyclopenta [1,2-c]pyrazol-6-yl)benzyl)piperidin-4-yl) morpholine]",< 1,< 30,< 30
